Legend:
[1] = test system: A2780 ovarian cancer cell line; assay: Cytotoxicity against A2780 ovarian cancer cell line (Coulter counter cell count, Example 10); type: cell-based, human; conditions: 24 hours exposure, further 72 h growth, stock solutions in deionised water
Procedure: Some compounds were tested for cytotoxicity against the A2780 ovarian cancer cell line as follows.
(§1) The human ovarian cells were added at a density of 1×10^4 cells per well to 24-well tissue culture trays (Falcon Plastic, Becton Dickenson, Lincon Park, N.J., USA) and allowed to grow for 72 hours before addition of the Ru(II) arene complexes. Stock solutions of the ruthenium compounds were made up fresh in deionised water and sonicated to ensure complete dissolution. These stock solutions were diluted with media to give final concentrations ranging between 0.1 and 100 μM. All compounds were evaluated at each concentration in duplicate wells, and complete assays were repeated a minimum of three times. Cisplatin or carboplatin was employed as a positive and comparative control in each experiment. After 24 hours exposure the drug-containing medium was removed, the cells washed with phosphate buffered saline (PBS) and fresh medium was added. Cell number was assessed after a further 72 h growth using s Coulter counter (Coulter Electronics Ltd, Luton, UK) and the IC50 values (concentration of drug causing 50% growth inhibition) calculated by linear regression analysis comparing the inhibitory effects of the drugs against the growth of untreated cells.

A2780 cancer cell line = assay: Inhibitory growth activity against A2780 cancer cell line (sulforhodamine B assay, Example 11); type: cell-based, human; conditions: 24 hours exposure, 96 hours recovery, 0.5% DMSO
Procedure: (§2) Other compounds were tested for inhibitory growth activity against the A2780 and A549 cancer cell lines as follows. Each drug was tested for activity at six different concentrations (100 μM, 50 μM, 10 μM, 5 μM, 1 μM and 0.1 μM) and each concentration was tested in triplicate, relative to a cisplatin control.
(§3) The A2780 cancer cell line was maintained by growing the cells in RPMI media supplemented with 5% fetal bovine serum, 1% penicillin/streptomycin and 2 mM L-glutamine. The cells were split when approximately 70-80% confluence were reached using 0.25% trypsin/EDTA. The cells were kept incubated at 37° C., 5% CO2, high humidity. The A549 cancer cell line was maintained by growing the cells in DMEM media supplemented with 10% fetal bovine serum, 1% penicillin/streptomycin and 2 mM L-glutamine. The cells were split when approximately 70-80% confluence were reached using 0.25% trypsin/EDTA. The cells were kept incubated at 37° C., 5% CO2, high humidity.
(§4) A2780 cancer cells were plated out at 5000 cells/well (±10%) on day one. A549 cancer cells were plated out at 2000 cells/well (±10%) on day two. On day three the test compound was dissolved in DMSO to give a stock solution of 20 mM and serial dilutions were carried out in DMSO to give concentrations of drug in DMSO of 10 mM, 2 mM, 1 mM, 0.2 mM and 0.02 mM. These were added to the wells to give the six testing concentrations and a final concentration of DMSO as 0.5% (v/v) with a total volume of drugs and media to be 200 μl. The cells were exposed to the drug for 24 hours then, after drug removal, fresh media was given and the cells were incubated for 96 hours recovery time. The remaining biomass was estimated by the sulforhodamine B assay. The cells were then fixed using 50 μl 50% (w/v) TCA and incubated at 4° C. for one hour. The biomass was stained with 100 μl 0.4% (w/v) sulforhodamine B in 1% acetic acid.
(§5) The dye was solubilised with Tris Buffer and the absorbance was read using a BMG Fluostar microplate reader at 595 nm. A baseline correction at 690 nm was subtracted from the values. The absorbance for 100% cell survival was based on the average absorbance for the 0.1 μM dosed triplicate for that drug. IC50 values were calculated using XL-Fit version 4.0.

A549 cancer cell line = assay: Inhibitory growth activity against A549 cancer cell line (sulforhodamine B assay, Example 11); type: cell-based; conditions: 24 hours exposure, 96 hours recovery, 0.5% DMSO
Procedure: as §2, §3, §4, §5

[2] = test system: cisplatin resistant cell line (A2780^cis); assay: Cytotoxicity against cisplatin resistant cell line A2780cis (Example 10); type: cell-based, human
Procedure: as §1

| Substance | IC50 [1] | IC50 (A2780 cancer cell line) | IC50 (A549 cancer cell line) | IC50 ([2]; A2780cis cisplatin resistant cell line) | fold resistance ([2]; A2780cis versus A2780) |
| --- | --- | --- | --- | --- | --- |
| [(η-indan)Ru(2,9-Me2-phen-N,N)Cl]PF6 [Compound 3] | > 50 µM | – | – | – | – |
| [(η^6-bz)RuCl(bipy(OH)O^−)] [Compound 7] | – | 65 µM | – | – | – |
| [(η^6-indan)RuCl(bipydiol-N,N)Cl] [Compound 1] | 3 µM | 17.6 µM | 39 µM | 2.1 µM | 0.7 fold |
| [(η^6-THN)Ru(bipydiol-N,N—H)Cl] [Compound 6] | – | 7.3 µM | 23.6 µM | – | – |
| [(η^6-biph)RuCl(bipy(OH)O^−)] [Compound 8] | – | 40 µM | – | – | – |
| [(η^6-DHA)Ru(bipydiol-N,N—H)Cl] [Compound 5] | – | 16.7 µM | 38.4 µM | – | – |
| [(η^6-indan)Ru(phenanthroline-N,N)Cl]PF6 [Compound 2] | 52 µM | – | – | – | – |
| [(η^6-THA)Ru(bipydiol-N,N—H)Cl] [Compound 4] | – | 7.9 µM | 21 µM | – | – |
| [(η^6-p-terp)RuCl(bipy(OH)O—)] [Compound 9] | – | 21 µM | 62 µM | – | – |
